Experimental data: paper PMC6409085, “Three odorant-binding proteins are involved in the behavioral response of Sogatella furcifera to rice plant volatiles” (PeerJ, 2019)
Where “and” joins values, the source holds several entries; their conditions need not be identical. Equal values may be shown once.

How the values were obtained:
SfurOBP1 = SfurOBP1 (Sogatella furcifera, UniProt V5T8N5); test: biochemical; type: binding; conditions: for Fluorescence competitive binding assay, fluorescence intensity: OBP1, three replicate columns
How it was run: (§1)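 First, 2.0 µM protein in 50 mM Tris-HCl (pH 7.4) was titrated with 1-NPN to obtain K1-NPN. Then odorants (2–20 µM final) competed against 2.0 µM 1-NPN, with fluorescence (ex 337 nm) recorded after 2 min. Ki was computed from IC50 via Ki = IC50/(1 + [1-NPN]/K1-NPN).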

SfurOBP11 = SfurOBP11 (Sogatella furcifera, UniProt V5T6E3); test: biochemical; type: binding
How it was run: as §1

SfurOBP2 = SfurOBP2 (Sogatella furcifera, UniProt V5T759); test: biochemical; type: binding
How it was run: as §1

SfurOBP3 = SfurOBP3 (Sogatella furcifera, UniProt V5T818); test: biochemical; type: binding; conditions: for Fluorescence competitive binding assay, fluorescence intensity: OBP3, three replicate columns
How it was run: as §1

S. furcifera adults = test: Y-tube olfactometer behavioral trials; type: in vivo, Sogatella furcifera; conditions: odorant 50 µL/L vs hexane
Description: To test the effect of the rice odorants on the behavior of S. furcifera adults, a glass Y-tube olfactometer (inner diameter 2.0 cm, stem 13 cm, arms 10 cm, angle of arms 60°) according to the previously described ([Wang et al., 2014b]) was employed. An airtight cubic box (70 by 45 by 30 cm) was used to position Y-tube, and the Y-tube was lighted by a 30-W filament lamp 25 cm above it. Air that filtered through activated charcoal and humidified with doubly distilled water was pumped in both arms at a flow rate of 300 mL/min. Two filter paper strips (10 by 1 cm) containing 100 µL odorant source (50 µL/L) and 100 µL control hexane were placed in two holding chambers in the front of the olfactometer, respectively. A S. furcifera adult (2 days after emergence, starved for 0.5 h) was randomly chosen and placed in the stem of the Y-tube. Each insect was given 10 min to choose between the two arms of the Y-tube, the choice was noted if the planthopper reached one-half of the arms’ lengths and stayed in the arm for more than 1 min. Besides, S. furcifera was considered as having no orientation preference. Forty-five individuals were used for each compound, each insect used only once. And the dual-choice experiment was done in an environmentally controlled room (25 ± 1 °C and 50% RH). A Chi-squared test was used to analyze the behavioral assay data by using SPSS19.0 (SPSS Inc., Chicago, IL, USA) software.

Chain of SfurOBP2 (V5T759 entry or part of it): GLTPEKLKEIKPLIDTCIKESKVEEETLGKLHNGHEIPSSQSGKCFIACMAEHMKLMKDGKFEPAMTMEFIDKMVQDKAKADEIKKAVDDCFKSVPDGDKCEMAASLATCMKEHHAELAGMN
Chain of SfurOBP1 (V5T8N5 entry or part of it): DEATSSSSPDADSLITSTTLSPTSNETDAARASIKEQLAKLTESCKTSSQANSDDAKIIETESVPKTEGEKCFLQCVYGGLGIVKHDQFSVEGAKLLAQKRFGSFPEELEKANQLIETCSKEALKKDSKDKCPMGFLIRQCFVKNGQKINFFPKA
Chain of SfurOBP3 (V5T818 entry or part of it): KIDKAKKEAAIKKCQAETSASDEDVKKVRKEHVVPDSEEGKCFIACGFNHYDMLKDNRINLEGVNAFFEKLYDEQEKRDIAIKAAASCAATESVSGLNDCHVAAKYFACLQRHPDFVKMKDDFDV
Chain of SfurOBP11 (V5T6E3 entry or part of it): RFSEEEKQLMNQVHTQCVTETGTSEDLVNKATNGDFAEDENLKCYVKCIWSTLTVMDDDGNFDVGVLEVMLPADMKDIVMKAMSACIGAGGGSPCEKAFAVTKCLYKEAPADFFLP

CCCCCCCC=O [octanal]
Fluorescence competitive binding assay, fluorescence intensity (SfurOBP1; ligand concentration 2 (μM)): 7113 and 7279 and 7196 | Fluorescence competitive binding assay, fluorescence intensity (SfurOBP1; ligand concentration 4 (μM)): 8035 and 6567 and 6323 | Fluorescence competitive binding assay, fluorescence intensity (SfurOBP1; ligand concentration 6 (μM)): 7198 and 8786 and 7995 | Fluorescence competitive binding assay, fluorescence intensity (SfurOBP1; ligand concentration 8 (μM)): 8545 and 7731 and 8071 | Fluorescence competitive binding assay, fluorescence intensity (SfurOBP1; ligand concentration 10 (μM)): 6799 and 7181 and 8487 | Fluorescence competitive binding assay, fluorescence intensity (SfurOBP1; ligand concentration 12 (μM)): 7177 and 8788 and 7408 | Fluorescence competitive binding assay, fluorescence intensity (SfurOBP1; ligand concentration 14 (μM)): 8520 and 7543 and 7998 | Fluorescence competitive binding assay, fluorescence intensity (SfurOBP1; ligand concentration 16 (μM)): 7196 and 9418 and 8283 | Fluorescence competitive binding assay, fluorescence intensity (SfurOBP1; ligand concentration 18 (μM)): 10247 and 9192 and 8904 | Fluorescence competitive binding assay, fluorescence intensity (SfurOBP1; ligand concentration 20 (μM)): 10042 and 9521 and 8702 | IC50 (SfurOBP1; SfurOBP1, protein and 1-NPN both 2.0 µM, competitor 2-20 µM, read-out: IC50): > 20 µM | IC50 (SfurOBP11; SfurOBP11, protein and 1-NPN both 2.0 µM, competitor 2-20 µM, read-out: IC50): > 20 µM | Fluorescence intensity, fluorescence competitive binding assay, OBP11 (SfurOBP11; ligand concentration 2, replicate 1): 24279 | Fluorescence intensity, fluorescence competitive binding assay, OBP11 (SfurOBP11; ligand concentration 2, replicate 2): 24939 | Fluorescence intensity, fluorescence competitive binding assay, OBP11 (SfurOBP11; ligand concentration 2, replicate 3): 29122 | Fluorescence intensity, fluorescence competitive binding assay, OBP11 (SfurOBP11; ligand concentration 4, replicate 1): 25640 | Fluorescence intensity, fluorescence competitive binding assay, OBP11 (SfurOBP11; ligand concentration 4, replicate 2): 28958 | Fluorescence intensity, fluorescence competitive binding assay, OBP11 (SfurOBP11; ligand concentration 4, replicate 3): 26788 | Fluorescence intensity, fluorescence competitive binding assay, OBP11 (SfurOBP11; ligand concentration 6, replicate 1): 25301 | Fluorescence intensity, fluorescence competitive binding assay, OBP11 (SfurOBP11; ligand concentration 6, replicate 2): 29174 | Fluorescence intensity, fluorescence competitive binding assay, OBP11 (SfurOBP11; ligand concentration 6, replicate 3): 26969 | Fluorescence intensity, fluorescence competitive binding assay, OBP11 (SfurOBP11; ligand concentration 8, replicate 1): 29061 | Fluorescence intensity, fluorescence competitive binding assay, OBP11 (SfurOBP11; ligand concentration 8, replicate 2): 28222 | Fluorescence intensity, fluorescence competitive binding assay, OBP11 (SfurOBP11; ligand concentration 8, replicate 3): 29900 | Fluorescence intensity, fluorescence competitive binding assay, OBP11 (SfurOBP11; ligand concentration 10, replicate 1): 27603 | Fluorescence intensity, fluorescence competitive binding assay, OBP11 (SfurOBP11; ligand concentration 10, replicate 2): 27689 | Fluorescence intensity, fluorescence competitive binding assay, OBP11 (SfurOBP11; ligand concentration 10, replicate 3): 19569 | Fluorescence intensity, fluorescence competitive binding assay, OBP11 (SfurOBP11; ligand concentration 12, replicate 1): 25318 | Fluorescence intensity, fluorescence competitive binding assay, OBP11 (SfurOBP11; ligand concentration 12, replicate 2): 27390 | Fluorescence intensity, fluorescence competitive binding assay, OBP11 (SfurOBP11; ligand concentration 12, replicate 3): 28182 | Fluorescence intensity, fluorescence competitive binding assay, OBP11 (SfurOBP11; ligand concentration 14, replicate 1): 26354 | Fluorescence intensity, fluorescence competitive binding assay, OBP11 (SfurOBP11; ligand concentration 14, replicate 2): 26978 | Fluorescence intensity, fluorescence competitive binding assay, OBP11 (SfurOBP11; ligand concentration 14, replicate 3): 26309 | Fluorescence intensity, fluorescence competitive binding assay, OBP11 (SfurOBP11; ligand concentration 16, replicate 1): 23481 | Fluorescence intensity, fluorescence competitive binding assay, OBP11 (SfurOBP11; ligand concentration 16, replicate 2): 24311 | Fluorescence intensity, fluorescence competitive binding assay, OBP11 (SfurOBP11; ligand concentration 16, replicate 3): 22273 | Fluorescence intensity, fluorescence competitive binding assay, OBP11 (SfurOBP11; ligand concentration 18, replicate 1): 28836 | Fluorescence intensity, fluorescence competitive binding assay, OBP11 (SfurOBP11; ligand concentration 18, replicate 2): 32227 | Fluorescence intensity, fluorescence competitive binding assay, OBP11 (SfurOBP11; ligand concentration 18, replicate 3): 28560 | Fluorescence intensity, fluorescence competitive binding assay, OBP11 (SfurOBP11; ligand concentration 20, replicate 1): 27143 | Fluorescence intensity, fluorescence competitive binding assay, OBP11 (SfurOBP11; ligand concentration 20, replicate 2): 27661 | Fluorescence intensity, fluorescence competitive binding assay, OBP11 (SfurOBP11; ligand concentration 20, replicate 3): 26182 | IC50 (SfurOBP2; SfurOBP2, protein and 1-NPN both 2.0 µM, competitor 2-20 µM, read-out: IC50): > 20 µM | Fluorescence competitive binding assay, OBP2 (raw fluorescence reading) (SfurOBP2; ligand concentration 2 (unit not given), replicate column 1 of 3): 19179 | Fluorescence competitive binding assay, OBP2 (raw fluorescence reading) (SfurOBP2; ligand concentration 2 (unit not given), replicate column 2 of 3): 16653 | Fluorescence competitive binding assay, OBP2 (raw fluorescence reading) (SfurOBP2; ligand concentration 2 (unit not given), replicate column 3 of 3): 19027 | Fluorescence competitive binding assay, OBP2 (raw fluorescence reading) (SfurOBP2; ligand concentration 4 (unit not given), replicate column 1 of 3): 18170 | Fluorescence competitive binding assay, OBP2 (raw fluorescence reading) (SfurOBP2; ligand concentration 4 (unit not given), replicate column 2 of 3): 19771 | Fluorescence competitive binding assay, OBP2 (raw fluorescence reading) (SfurOBP2; ligand concentration 4 (unit not given), replicate column 3 of 3): 20766 | Fluorescence competitive binding assay, OBP2 (raw fluorescence reading) (SfurOBP2; ligand concentration 6 (unit not given), replicate column 1 of 3): 19862 | Fluorescence competitive binding assay, OBP2 (raw fluorescence reading) (SfurOBP2; ligand concentration 6 (unit not given), replicate column 2 of 3): 19512 | Fluorescence competitive binding assay, OBP2 (raw fluorescence reading) (SfurOBP2; ligand concentration 6 (unit not given), replicate column 3 of 3): 20651 | Fluorescence competitive binding assay, OBP2 (raw fluorescence reading) (SfurOBP2; ligand concentration 8 (unit not given), replicate column 1 of 3): 15792 | Fluorescence competitive binding assay, OBP2 (raw fluorescence reading) (SfurOBP2; ligand concentration 8 (unit not given), replicate column 2 of 3): 18755 | Fluorescence competitive binding assay, OBP2 (raw fluorescence reading) (SfurOBP2; ligand concentration 8 (unit not given), replicate column 3 of 3): 20463 | Fluorescence competitive binding assay, OBP2 (raw fluorescence reading) (SfurOBP2; ligand concentration 10 (unit not given), replicate column 1 of 3): 17421 | Fluorescence competitive binding assay, OBP2 (raw fluorescence reading) (SfurOBP2; ligand concentration 10 (unit not given), replicate column 2 of 3): 18400 | Fluorescence competitive binding assay, OBP2 (raw fluorescence reading) (SfurOBP2; ligand concentration 10 (unit not given), replicate column 3 of 3): 18628 | Fluorescence competitive binding assay, OBP2 (raw fluorescence reading) (SfurOBP2; ligand concentration 12 (unit not given), replicate column 1 of 3): 16986 | Fluorescence competitive binding assay, OBP2 (raw fluorescence reading) (SfurOBP2; ligand concentration 12 (unit not given), replicate column 2 of 3): 26722 | Fluorescence competitive binding assay, OBP2 (raw fluorescence reading) (SfurOBP2; ligand concentration 12 (unit not given), replicate column 3 of 3): 18513 | Fluorescence competitive binding assay, OBP2 (raw fluorescence reading) (SfurOBP2; ligand concentration 14 (unit not given), replicate column 1 of 3): 17500 | Fluorescence competitive binding assay, OBP2 (raw fluorescence reading) (SfurOBP2; ligand concentration 14 (unit not given), replicate column 2 of 3): 18527 | Fluorescence competitive binding assay, OBP2 (raw fluorescence reading) (SfurOBP2; ligand concentration 14 (unit not given), replicate column 3 of 3): 15051 | Fluorescence competitive binding assay, OBP2 (raw fluorescence reading) (SfurOBP2; ligand concentration 16 (unit not given), replicate column 1 of 3): 15983 | Fluorescence competitive binding assay, OBP2 (raw fluorescence reading) (SfurOBP2; ligand concentration 16 (unit not given), replicate column 2 of 3): 17600 | Fluorescence competitive binding assay, OBP2 (raw fluorescence reading) (SfurOBP2; ligand concentration 16 (unit not given), replicate column 3 of 3): 16529 | Fluorescence competitive binding assay, OBP2 (raw fluorescence reading) (SfurOBP2; ligand concentration 18 (unit not given), replicate column 1 of 3): 18709 | Fluorescence competitive binding assay, OBP2 (raw fluorescence reading) (SfurOBP2; ligand concentration 18 (unit not given), replicate column 2 of 3): 20674 | Fluorescence competitive binding assay, OBP2 (raw fluorescence reading) (SfurOBP2; ligand concentration 18 (unit not given), replicate column 3 of 3): 18464 | Fluorescence competitive binding assay, OBP2 (raw fluorescence reading) (SfurOBP2; ligand concentration 20 (unit not given), replicate column 1 of 3): 19401 | Fluorescence competitive binding assay, OBP2 (raw fluorescence reading) (SfurOBP2; ligand concentration 20 (unit not given), replicate column 2 of 3): 17294 | Fluorescence competitive binding assay, OBP2 (raw fluorescence reading) (SfurOBP2; ligand concentration 20 (unit not given), replicate column 3 of 3): 16214 | Fluorescence competitive binding assay, fluorescence intensity (SfurOBP3; ligand concentration 2): 68575 and 67242 and 67984 | Fluorescence competitive binding assay, fluorescence intensity (SfurOBP3; ligand concentration 4): 64299 and 63882 and 65677 | Fluorescence competitive binding assay, fluorescence intensity (SfurOBP3; ligand concentration 6): 63214 and 64264 and 71883 | Fluorescence competitive binding assay, fluorescence intensity (SfurOBP3; ligand concentration 8): 56987 and 54777 and 62435 | Fluorescence competitive binding assay, fluorescence intensity (SfurOBP3; ligand concentration 10): 56513 and 56201 and 65155 | Fluorescence competitive binding assay, fluorescence intensity (SfurOBP3; ligand concentration 12): 55112 and 58995 and 53063 | Fluorescence competitive binding assay, fluorescence intensity (SfurOBP3; ligand concentration 14): 51702 and 52973 and 56636 | Fluorescence competitive binding assay, fluorescence intensity (SfurOBP3; ligand concentration 16): 47206 and 51931 and 50397 | Fluorescence competitive binding assay, fluorescence intensity (SfurOBP3; ligand concentration 18): 54350 and 59148 and 62323 | Fluorescence competitive binding assay, fluorescence intensity (SfurOBP3; ligand concentration 20): 48786 and 51913 and 45060 | IC50 (SfurOBP3; SfurOBP3, protein and 1-NPN both 2.0 µM, competitor 2-20 µM, read-out: IC50): > 20 µM | behavioral response of S. furcifera (in words) (S. furcifera adults): significantly repelled | number of insects choosing hexane arm (S. furcifera adults; adults): 15 | number of insects choosing volatilies arm (S. furcifera adults; adults): 8 | number of insects failed (no choice) (S. furcifera adults; adults): 17
